Reference: the Bradley open melting point set (2014)

Row | melting point [°C] | SMILES
1 | 142 | CNC[C@H](O)c1cccc(O)c1 [Phenylephrine]
2 | 142 | O=C(NC(C(=O)O)c1ccccc1)OCC(Cl)(Cl)Cl (stereo not given) [Phenyl{[(2,2,2-trichloroethoxy)carbonyl]amino}acetic acid]
3 | 230 | O=C(O)c1ccccc1C(=O)O [Phthalic Acid]
4 | 198 | CN1/C(=C(\O)Nc2ccccn2)C(=O)c2ccccc2S1(=O)=O [Piroxicam]
5 | 195 | CCCN(CCC)S(=O)(=O)c1ccc(C(=O)O)cc1 [Probenecid]
6 | 116 | N#Cc1ccc2c(c1)N(CCCN1CCC(O)CC1)c1ccccc1S2 [Propericiazine]
7 | 96.5 | CCCOC(=O)c1ccc(O)cc1 [Propyl 4-hydroxybenzoate]
8 | 192 | NC(=O)c1cnccn1 [Pyrazinamide]
9 | 205 | Cc1ncc(COP(=O)(O)O)c(C=O)c1O [Pyridoxal Phosphate]
10 | 105 | Oc1ccccc1O [Pyrocatechol]
11 | 111 | Oc1cccc(O)c1 [Resorcinol]
12 | 168 | Cc1ccc(S(=O)(=O)N=S(C)(C)=O)cc1 [S,S-dimethyl-N-(p-toluenesulfonyl)sulfoximine]
13 | 158 | O=C(O)c1ccccc1O [Salicyclic acid]
14 | 161 | O=C(O)c1ccccc1O [Salicylic acid]
15 | 350 | CC(C)(C)NC(=O)[C@@H]1CC2CCCCC2CN1C[C@@H](O)[C@H](Cc1ccccc1)NC(=O)[C@H](CC(N)=O)NC(=O)c1ccc2ccccc2n1 (stereo not given in full) [Saquinavir]
16 | 136 | CCC(C)(C)C(=O)O[C@H]1C[C@@H](C)C=C2C=C[C@H](C)[C@H](CC[C@@H]3C[C@@H](O)CC(=O)O3)[C@H]21 [Simvastatin]
17 | 183 | CC(=O)NS(=O)(=O)c1ccc(N)cc1 [Sulfacetamide]
18 | 204 | COc1cc(NS(=O)(=O)c2ccc(N)cc2)nc(OC)n1 [Sulfadimethoxine]
19 | 235 | Cc1ccnc(NS(=O)(=O)c2ccc(N)cc2)n1 [Sulfamerazine]
20 | 182 | COc1ccc(NS(=O)(=O)c2ccc(N)cc2)nn1 [Sulfamethoxypyridazine]
21 | 170 | COc1nccnc1NS(=O)(=O)c1ccc(N)cc1 [Sulfametopyrazine]
22 | 243 | Cc1cc(NS(=O)(=O)c2ccc(N)cc2)nc(C)n1 [Sulfisomidine]
23 | 194 | Cc1noc(NS(=O)(=O)c2ccc(N)cc2)c1C [Sulfisoxazole]
24 | 270 | O=C1CCC(N2C(=O)c3ccccc3C2=O)C(=O)N1 (stereo not given) [Thalidomide]
25 | 270 | Cn1c(=O)c2[nH]cnc2n(C)c1=O [Theophylline]
26 | 136 | CNC(=O)N(C)c1nnc(C(F)(F)F)s1 [Thiazafluron]

Row | melting point [°C] | SMILES
27 | 211 | O=c1c2ccccc2sc2ccccc12 [Thioxanthen-9-one]
28 | 128 | CCCCNC(=O)NS(=O)(=O)c1ccc(C)cc1 [Tolbutamide]
29 | 164 | Cc1cccc(Nc2ccncc2S(=O)(=O)NC(=O)NC(C)C)c1 [Torasemide]
30 | 276 | C[C@]12C=CC(=O)C=C1CC[C@H]1[C@@H]3C[C@@H](O)[C@](O)(C(=O)CO)[C@@]3(C)C[C@H](O)[C@@]12F [Triamcinolone]
31 | 147 | CC(C)(C)OC(=O)NCC(=O)N(Cc1ccco1)C(C(=O)NCc1ccccc1)c1ccccc1 (stereo not given) [Ugi product 108C (UC)]
32 | 194 | CN(C)c1ccc(C(C(=O)NC(C)(C)C)N(C)C(=O)CCCc2ccc3ccc4cccc5ccc2c3c45)cc1 (stereo not given) [Ugi product 171K (UC)]
33 | 138 | CCCCNC(=O)C(c1cc(OC)cc(OC)c1)N(Cc1ccccc1)C(=O)C#Cc1ccccc1 (stereo not given) [Ugi product 173G (UC)]
34 | 191 | O=C1O[C@H]([C@@H](O)CO)C(O)=C1O [Vitamin C]
35 | 101 | c1ccc2c(c1)Cc1ccccc1O2 [Xanthene]
36 | 286 | c1cc2ccc1CCc1ccc(cc1)CC2 [[2.2]paracyclophane]
37 | 116 | O=C(O)CSc1ccc(C(F)(F)F)cc1 [[4-(trifluoromethyl)phenylthio]acetic acid]
38 | 65 | C/C(=C(/C)c1ccccc1)c1ccccc1 [[(1E)-1-Methyl-2-phenyl-1-propenyl]benzene]
39 | 199 | CC(=NNC(=O)c1ccncc1)c1ccco1 [a-Methylfurfurylidenehydrazide of Isonicotinic Acid]
40 | 119 | CCCC(=O)Nc1ccc(OCC(O)CNC(C)C)c(C(C)=O)c1 (stereo not given) [acebutolol]
41 | 187 | CC(=O)Nc1ccc(OC(=O)c2ccccc2O)cc1 [acetaminosalol]
42 | 188 | CC(=O)c1ccc(S(=O)(=O)NC(=O)NC2CCCCC2)cc1 [acetohexamide]
43 | 255 | Nc1nc2c(ncn2COCCO)c(=O)[nH]1 [acyclovir]
44 | 234 | Nc1ncnc2c1ncn2[C@@H]1O[C@H](CO)[C@@H](O)[C@H]1O [adenosine]
45 | 144 | CN(C)CC(=O)N1c2ccccc2Sc2ccccc21 [ahistan]
46 | 92.5 | C=CCOc1ccc(CC(=O)O)cc1Cl [alclofenac] [listing 1 of 2 here]
47 | 92 | C=CCOc1ccc(CC(=O)O)cc1Cl [alclofenac] [listing 2 of 2 here]
48 | 95 | C=CCc1cc(OC)c(O)c(C(=O)NCCO)c1 [alibendol]
49 | 81 | CC(C)(C(=O)O)c1ccccc1 [alpha,alpha-dimethylphenylacetic acid]
50 | 80 | O=C(O)C(F)c1ccccc1 (stereo not drawn) [alpha-fluorophenylacetic acid]
51 | 239 | O=C1OC(c2ccc(O)c3ccccc23)(c2ccc(O)c3ccccc23)c2ccccc21 [alpha-naphtholphthalein]

The next lines start with the compound.

Row | SMILES | melting point [°C]
52 | CCC1(c2ccccc2)C(=O)NC(=O)NC1=O [Phenobarbital] | 176
53 | O=c1[nH]c2ccccc2n1C1CCN(CCCC(c2ccc(F)cc2)c2ccc(F)cc2)CC1 [Pimozide] | 216
54 | CC(Cc1ccccc1)NCCC(c1ccccc1)c1ccccc1 (stereo not given) [Prenylamine] | 36.5
55 | CC(=O)[C@H]1CC[C@H]2[C@@H]3CCC4=CC(=O)CC[C@]4(C)[C@H]3CC[C@]12C [Progesterone] | 121
56 | CCC(=O)O [Propionic acid] | -20.8
57 | CCCOC(C)=O [Propyl Acetate] | -93
58 | CCCOC(C)=O [Propyl acetate] | -95
59 | C=CC [Propylene] | -185
60 | NCCCCN [Putrescine] | 27.5
61 | c1cc2ccc3cccc4ccc(c1)c2c34 [Pyrene] [listing 1 of 2 here] | 151
62 | c1cc2ccc3cccc4ccc(c1)c2c34 [Pyrene] [listing 2 of 2 here] | 150
63 | [O-][n+]1ccccc1S [Pyridine-2-thiol 1-oxide] | 70.5
64 | Oc1cccc2cccnc12 [Quinolin-8-ol] | 76
65 | CC(=O)S[C@@H]1CC2=CC(=O)CC[C@]2(C)[C@H]2CC[C@@]3(C)[C@@H](CC[C@@]34CCC(=O)O4)[C@H]12 [Spironolactone] | 134
66 | O=C(O)CCC(=O)O [Succinic acid] | 186
67 | O=C(O)CS [Sulfanylacetic acid] | -16.5
68 | O=S(=O)(O)O [Sulfuric acid] | -2
69 | O=C5\C=C4/C(C3CCC2(C(CCC2OC(=O)c1ccccc1)C3CC4)C)(C)CC5 (stereo not given) [Testosterone benzoate] | 195
70 | C=CCCCCCCCCCCCC [Tetradec-1-ene] | -13
71 | C1CCSC1 [Tetrahydrothiophene] | -96
72 | CCCCOB(OCCCC)OCCCC [Tributyl borate] | -70
73 | CCCCP(CCCC)CCCC [Tributylphosphine] | -60
74 | CCCCCCCCCCCCCCCCCCCCCCC [Tricosane] | 49
75 | O=C(O)C(F)(F)C(F)(F)C(F)(F)C(F)(F)C(F)(F)C(F)(F)F [Tridecafluoroheptanoic acid] | 30
76 | CCOP(=O)(OCC)OCC [Triethyl phosphate] | -56

Row | SMILES | melting point [°C]
77 | O=S(=O)(O)C(F)(F)F [Trifluoromethanesulfonic acid] | -40
78 | O=P(Oc1ccccc1)(Oc1ccccc1)Oc1ccccc1 [Triphenyl phosphate] | 50.5
79 | c1ccc(P(c2ccccc2)c2ccccc2)cc1 [Triphenylphosphine] | 80.5
80 | CCCCC(CC)COP(=O)(OCC(CC)CCCC)OCC(CC)CCCC (stereo not given) [Tris(2-ethylhexyl) phosphate] | -70
81 | Cc1ccccc1OP(=O)(Oc1ccccc1C)Oc1ccccc1C [Tris(2-methylphenyl) phosphate] | -33
82 | CCCCCCCCCCCO [Undecan-1-ol] | 11
83 | CCCCCCCCCCC(=O)O [Undecanoic acid] | 28.5
84 | CCCCC#N [Valeronitrile] | -96
85 | ClCc1cccc(CCl)c1 [a,a'-dichloro-m-xylene] | 36
86 | ClC(Cl)c1ccccc1 [a,a-dichlorotoluene] | -16
87 | CCC(Br)(CC)C(=O)NC(=O)NC(C)=O [acecarbromal] | 109
88 | CCOC(C)OCC [acetaldehyde diethyl acetal] | -100
89 | CC(N)=O [acetamide] | 80
90 | CC(=O)OC(C)=O [acetic anhydride] | -73
91 | CC(C)=NO [acetone oxime] | 62
92 | CC(=O)Cl [acetyl chloride] | -112
93 | C=CC(N)=O [acrylamide] | 84
94 | C=CC(=O)O [acrylic acid] | 13
95 | C=CC(=O)O [acrylic_acid] | 13
96 | O=C(O)C12CC3CC(CC(C3)C1)C2 [adamantane-1-carboxylic acid] | 175
97 | O=C(CS(=O)C(c1ccccc1)c1ccccc1)NO (stereo not given) [adrafinil] | 159
98 | OC[C@H]1O[C@H](O)[C@H](O)[C@@H](O)[C@@H]1O [alpha-D-Glucopyranose] | 154
99 | CC(=O)OC[C@H]1O[C@H](OC(C)=O)[C@H](OC(C)=O)[C@@H](OC(C)=O)[C@@H]1OC(C)=O [alpha-D-glucose pentaacetate] | 111
100 | ClC1C(Cl)C(Cl)C(Cl)C(Cl)C1Cl (stereo not drawn) [alpha-hexachlorocyclohexane] | 160
